The test system of test [1] is cells with transient siRNA-mediated loss of XRN2. As to the kind of experiment: Colony forming assay, PARP inhibition with transient siRNA-mediated loss of XRN2. The class given is cell-based. The note with it: FIG. 8C, p<0.05. The procedure:
FIGS. 8A-C. XRN2 depletion sensitizes cells to genetic knockdown and chemical inhibition of PARP1. […] (FIG. 8B) Loss of XRN2 and PARP1 by transient siRNA knockdown together inhibits cellular growth and survival; black column—shSCR; white column—shXRN2.
shScr and shXRN2 cells were plated onto 60 mm tissue culture plates and allowed to grow for two days. […] Colonies with >50 normal appearing cells were counted and percent survival calculated and graphed with dose.

Test [2] concerns advanced pancreatic cancer. The conditions noted are these: people with advanced pancreatic cancer; cited from earlier work.
Test [3] concerns XRN2 deficient cells, fibroblast or MDA-MB-231 cells. As to the kind of experiment: Colony forming ability assay in shScr versus shXRN2 cells after genomic insult. It counts as cell-based, human. The conditions noted are these: FIGS. 12E-F.
Text: (FIGS. 12A-D) shScr versus shXRN2 cells (as indicated in the graph) or cells exposed to si-control (siSCR) versus XRN2 specific siRNA (siXRN2) were either mock-treated or exposed to: (FIGS. 12A-B) ionizing radiation (IR); (FIGS. 12C-D) ultraviolet light (UV). (FIGS. 12E-F) shScr and shXRN2, were either mock-treated or exposed to: (FIG. 12E) H2O2 or (FIG. 12F) Aphidicolin (APH). Cells were then monitored for survival using colony forming ability assays. Colonies of >50 normal-appearing cells were quantified for mock-versus agent-exposed cells. (**p<0.01).
shScr and shXRN2 cells were plated onto 60 mm tissue culture plates and allowed to grow for two days. Cells were then exposed to IR and UV (at various doses as indicated), allowed to grow for 7 days, washed with PBS and stained with crystal violet solution. Colonies with >50 normal appearing cells were counted and percent survival calculated and graphed with dose.
Another test deals with fibroblast cells. Kind of test: Immunofluorescence of XRN2 and R loop (S9.6) foci after UV treatment. It counts as cell-based, human. The conditions noted are these: UV (20 J/m^2) + a-amanitin; FIG. 17D. The text has this:
FIGS. 10A-D. XRN2 is a DNA damage response (DDR) factor. (FIG. 10A) To interrogate potential in vivo XRN2-interacting partners, exponentially growing HeLa cells were collected and lysed for FPLC analyses. Individual fractions were separated by SDS-PAGE and western blot techniques used to probe for indicated proteins. (FIG. 10B) Interactions between XRN2 and the DNA damage regulators Ku80, 53BP1, and BRCA1 were interrogated by immunoprecipitation (IP). (FIG. 10C) Sub-cellular XRN2 localization was quantitated in shScr and […] cells in mock-, IR (1 Gy), and UV (20 J/m^2) fibroblast cells. (FIG. 10D) Sub-cellular XRN2 localization and S9.6 foci was visualized in mock-, UV (20 J/m^2)-, or UV (20 J/m^2)+a amanitin (a-aman)-treated shScr and shXRN2 fibroblast cells by IF. (*p<0.05).
FIGS. 17A-D. XRN2 undergoes transcription-dependent nuclear re-distribution in response to IR and UV. (FIGS. 17A-D) Sub-cellular localization of XRN2 was monitored in fibroblast cells either after (FIG. 17A) mock, (FIG. 17B) IR (1Gy), (FIG. 17C) UV (20 J/m^2), or (FIG. 17D) UV (20 J/m^2)+a-amanitin treated cells by IF.
To visualize 53BP1, XRN2, and γ-H2AX, cells were plated, grown to ˜70% confluency on glass coverslips and either mock- or IR-treated. […] Visualization was performed using a 100× oil objective lens with fluorescence on a Nikon microscope. For each experiment 100 cells were counted. […]

The subject of test [4] is shXRN2 human fibroblast cells. Kind of test: Immunofluorescence of basal 53BP1 foci and R loops in shXRN2 versus shScr cells. It counts as cell-based. The procedure: FIGS. 24A-C. DSBs formed in XRN2 deficient cells are dependent on active transcription and R-loop formation. (FIGS. 24A-B) Levels of 53BP1 were monitored in shXRN2 and compared to shScr human fibroblast cells after exposure to mock-, a-amanitin-, or GFP- or RNaseH-transfection treatments by IF. (FIG. 24C) Levels of R loops or 53BP1 were monitored in mock- or a-amanitin-treated shXRN2 cells by IF.
To visualize 53BP1, XRN2, and γ-H2AX, cells were plated, grown to ˜70% confluency on glass coverslips and either mock- or IR-treated. Cells were then washed once with PBS, permeabilized and fixed in methanol/acetone (70/30, v/v). To visualize ATM pS 1981 and Mre11 cells were fixed in 3% paraformaldehyde/2% sucrose PBS solution for 10 min at room temperature (RT). Fixation was followed by permeabilization on ice with a 0.5% Triton X-100 buffer (0.5% Triton X-100, 20 mM HEPES, pH 7.4, 50 mM NaCl, 3 mM MgCl, and 300 mM sucrose). […] Visualization was performed using a 100× oil objective lens with fluorescence on a Nikon microscope. For each experiment 100 cells were counted.
To determine how transcription and R-loop formation contributed to the DNA damage observed in shXRN2 cells, the inventors treated shScr and shXRN2 cells with a-amanitin or transfected each cell line with GFP control or GFP-RNaseH expression plasmids to remove R-loops and measured the number of 53BP1 foci.

For the next test, the system named is shXRN2 cells. As to the kind of experiment: Regression of 53BP1 foci/nucleus after IR exposure (DNA repair kinetics). The conditions noted are these: IR (1 Gy); treatment prior to IR; FIGS. 15B-C. The class given is cell-based. The text has this: FIGS. 15A-C. R loop formation and transcription contribute to delayed DSB repair kinetics in XRN2-deficient cells. (FIG. 15A) Levels of R loops were monitored in mock- or IR (1 Gy)-exposed shXRN2 compared to shScr MDA-MB-231 breast cancer cells by IF. (FIGS. 15B-C) Regression of 53BP1 foci/nucleus was monitored in mock- or IR (1 Gy)-treated shXRN2 compared to shScr cells that were exposed to a-amanitin or GFP- or GFP-RNaseH transfection at the indicated times by IF. (*p<0.05).
To visualize 53BP1, XRN2, and γ-H2AX, cells were plated, grown to ˜70% confluency on glass coverslips and either mock- or IR-treated. […] Visualization was performed using a 100× oil objective lens with fluorescence on a Nikon microscope. For each experiment 100 cells were counted.
Since the loss of XRN2 sensitized cells to IR treatment (FIG. 12A), the inventors examined the effects of IR on R-loop formation in shXRN2 cells. Because R-loops can directly lead to DSBs, they examined whether active transcription or R-loop formation directly affected DNA repair (regression of 53BP1 foci) after IR treatment. shScr or shXRN2 cells were treated or not with a-amanitin or transfected with GFP- or GFP-RNaseH expression plasmids prior to IR exposure and 53BP1 foci/nuclei regression kinetics were assessed at various times after IR exposure.

Take `O=C1NCCc2c(OCCCCN3CCCCC3)cccc21` [DPQ]: the “effect of PARP activity inhibition on survival in colony forming assays with loss of XRN2” value in test [1] was “synthetic lethal”.

Turning to `Nc1ccn([C@@H]2O[C@H](CO)[C@@H](O)C2(F)F)c(=O)n1` [Gemcitabine], the “improvement in median survival duration” value in test [2] is recorded as 5 week.

For the compound `C[C@@]1(CO)[C@H](O)CC[C@@]2(C)[C@H]1CC[C@H]1C[C@@H]3C[C@@]12CC[C@]3(O)CO` [aphidicolin], in test [3], the “sensitivity of XRN2 deficient cells (colony forming ability after exposure)” value was “hypersensitive”.

Turning to `OO` [hydrogen peroxide], the “sensitivity of XRN2 deficient cells (colony forming ability after exposure)” value in test [3] was “hypersensitive”.

For a-amanitin, the “XRN2 and R loop foci formation after UV treatment” value in the test with fibroblast cells is “failed to form”. In addition, in test [4] (after a-amanitin treatment, FIG. 24C), the “R-loop levels in shXRN2 cells” value is listed as “decrease in R-loop levels”. The “53BP1 foci in shXRN2 cells” value in test [4] (inhibition of transcription, to levels comparable to shScr cells, FIGS. 24A-B) was “decreased 53BP1 foci”. The “DNA repair kinetics (regression of 53BP1 foci) after IR exposure in shXRN2 cells” value with shXRN2 cells is “completely restored DNA repair kinetics”.

The values are drawn from patent US20170342503A1, “XRN2 AS A DETERMINANT OF SENSITIVITY TO DNA DAMAGE” (The Board of Regents of the University of Texas System, priority 2016, published 2017).
